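All cell lines were grown in 96-well plates and treated with compound for 48 hours. The concentration for 50% growth inhibition is given as GI50. TGI marks complete inhibition of growth.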
Assays:
Test in all cases: growth of human tumour cells (NCI), 48 h
SF-295 CNS = test system: SF-295 CNS
SW-620 colon = test system: SW-620 colon
BT-549 breast = test system: BT-549 breast
786-0 renal = test system: 786-0 renal
SNB-75 CNS = test system: SNB-75 CNS
HL-60(TB) leukemia = test system: HL-60(TB) leukemia
SF-268 CNS = test system: SF-268 CNS
LOX IMVI melanoma = test system: LOX IMVI melanoma
OVCAR-5 ovarian = test system: OVCAR-5 ovarian
MOLT-4 leukemia = test system: MOLT-4 leukemia
NCI-H460 lung = test system: NCI-H460 lung
HOP-92 NSCLC = test system: HOP-92 NSCLC
HT29 colon = test system: HT29 colon
OVCAR-8 ovarian = test system: OVCAR-8 ovarian
OVCAR-3 ovarian = test system: OVCAR-3 ovarian
HCC-2998 colon = test system: HCC-2998 colon
SF-539 CNS = test system: SF-539 CNS
CAKI-1 renal = test system: CAKI-1 renal
RPMI-8226 leukemia = test system: RPMI-8226 leukemia
T-47D breast = test system: T-47D breast
MDA-MB-435 = test system: MDA-MB-435
UACC-62 melanoma = test system: UACC-62 melanoma
COLO 205 colon = test system: COLO 205 colon
HCT-116 colon = test system: HCT-116 colon
SNB-19 CNS = test system: SNB-19 CNS
HCT-15 colon = test system: HCT-15 colon
PC-3 prostate = test system: PC-3 prostate
SK-MEL-2 melanoma = test system: SK-MEL-2 melanoma
MDA-MB-231 breast = test system: MDA-MB-231 breast
MCF7 breast = test system: MCF7 breast
EKVX NSCLC = test system: EKVX NSCLC
NCI/ADR-RES ovarian = test system: NCI/ADR-RES ovarian
SK-MEL-28 melanoma = test system: SK-MEL-28 melanoma
SN12C renal = test system: SN12C renal
HS 578T breast = test system: HS 578T breast
A549 NSCLC = test system: A549 NSCLC
UACC-257 melanoma = test system: UACC-257 melanoma
DU-145 prostate = test system: DU-145 prostate
HOP-62 NSCLC = test system: HOP-62 NSCLC
U251 CNS = test system: U251 CNS
NCI-H23 lung = test system: NCI-H23 lung
NCI-H226 lung = test system: NCI-H226 lung
K-562 leukemia = test system: K-562 leukemia
ACHN renal = test system: ACHN renal
OVCAR-4 ovarian = test system: OVCAR-4 ovarian
SR leukemia = test system: SR leukemia
NCI-H522 lung = test system: NCI-H522 lung
UO-31 renal = test system: UO-31 renal
CCRF-CEM leukemia = test system: CCRF-CEM leukemia
RXF 393 renal = test system: RXF 393 renal
KM12 colon = test system: KM12 colon
MALME-3M melanoma = test system: MALME-3M melanoma
IGROV1 ovarian = test system: IGROV1 ovarian
M14 melanoma = test system: M14 melanoma
TK-10 renal = test system: TK-10 renal
SK-OV-3 ovarian = test system: SK-OV-3 ovarian
A498 renal = test system: A498 renal
SK-MEL-5 melanoma = test system: SK-MEL-5 melanoma

CC(=O)N1N=C(c2ccc(Nc3nc(Nc4ccc(Cl)cc4)nc(Nc4ccc(Cl)cc4)n3)cc2)CC1c1ccc([N+](=O)[O-])cc1 (stereo unspecified)
GI50 (SF-295 CNS): 1870 nM
TGI (SF-295 CNS): 13.6 µM
GI50 (SW-620 colon): 8.77 µM
TGI (SW-620 colon): > 100 µM
GI50 (BT-549 breast): 10.6 µM
TGI (BT-549 breast): 88.9 µM
GI50 (786-0 renal): 3.8 µM
TGI (786-0 renal): 26.3 µM
GI50 (SNB-75 CNS): 3.71 µM
TGI (SNB-75 CNS): > 54.6 µM
GI50 (HL-60(TB) leukemia): 6.15 µM
TGI (HL-60(TB) leukemia): 24.4 µM
GI50 (SF-268 CNS): 7.14 µM
TGI (SF-268 CNS): > 100 µM
GI50 (LOX IMVI melanoma): 5.66 µM
TGI (LOX IMVI melanoma): > 47.1 µM
GI50 (OVCAR-5 ovarian): 19.4 µM
TGI (OVCAR-5 ovarian): > 100 µM
GI50 (MOLT-4 leukemia): 1920 nM
TGI (MOLT-4 leukemia): 8.35 µM
GI50 (NCI-H460 lung): 2750 nM
TGI (NCI-H460 lung): 12.5 µM
GI50 (HOP-92 NSCLC): 5.18 µM
TGI (HOP-92 NSCLC): 54.7 µM
GI50 (HT29 colon): 4.74 µM
TGI (HT29 colon): > 95 µM
GI50 (OVCAR-8 ovarian): 8.54 µM
TGI (OVCAR-8 ovarian): > 100 µM
GI50 (OVCAR-3 ovarian): 5.93 µM
TGI (OVCAR-3 ovarian): 25.6 µM
GI50 (HCC-2998 colon): 19.3 µM
TGI (HCC-2998 colon): > 80.1 µM
GI50 (SF-539 CNS): 6 µM
TGI (SF-539 CNS): 25.5 µM
GI50 (CAKI-1 renal): 6.1 µM
TGI (CAKI-1 renal): 32.5 µM
GI50 (RPMI-8226 leukemia): 3.61 µM
TGI (RPMI-8226 leukemia): 42.4 µM
GI50 (T-47D breast): 1740 nM
TGI (T-47D breast): 7.2 µM
GI50 (MDA-MB-435): 4.59 µM
TGI (MDA-MB-435): 36 µM
GI50 (UACC-62 melanoma): 11.9 µM
TGI (UACC-62 melanoma): 34.9 µM
GI50 (COLO 205 colon): 1820 nM
TGI (COLO 205 colon): 6.64 µM
GI50 (HCT-116 colon): 3.24 µM
TGI (HCT-116 colon): 34.8 µM
GI50 (SNB-19 CNS): 3.8 µM
TGI (SNB-19 CNS): 38.7 µM
GI50 (HCT-15 colon): 4.11 µM
TGI (HCT-15 colon): > 94.3 µM
GI50 (PC-3 prostate): 2920 nM
TGI (PC-3 prostate): > 69.4 µM
GI50 (SK-MEL-2 melanoma): 5.38 µM
TGI (SK-MEL-2 melanoma): > 45.6 µM
GI50 (MDA-MB-231 breast): 10.2 µM
TGI (MDA-MB-231 breast): > 92 µM
GI50 (MCF7 breast): 1710 nM
TGI (MCF7 breast): 10.4 µM
GI50 (EKVX NSCLC): 4.22 µM
TGI (EKVX NSCLC): > 40.1 µM
GI50 (NCI/ADR-RES ovarian): 5.41 µM
TGI (NCI/ADR-RES ovarian): > 70.4 µM
GI50 (SK-MEL-28 melanoma): 8.79 µM
TGI (SK-MEL-28 melanoma): 74.4 µM
GI50 (SN12C renal): 13.4 µM
TGI (SN12C renal): > 100 µM
GI50 (HS 578T breast): 7.7 µM
TGI (HS 578T breast): 97.7 µM
GI50 (A549 NSCLC): 5.57 µM
TGI (A549 NSCLC): > 86.5 µM
GI50 (UACC-257 melanoma): 11.4 µM
TGI (UACC-257 melanoma): > 72.4 µM
GI50 (DU-145 prostate): 5.56 µM
TGI (DU-145 prostate): > 54.9 µM
GI50 (HOP-62 NSCLC): 13.5 µM
TGI (HOP-62 NSCLC): 47.4 µM
GI50 (U251 CNS): 7.42 µM
TGI (U251 CNS): > 100 µM
GI50 (NCI-H23 lung): 11.1 µM
TGI (NCI-H23 lung): > 100 µM
GI50 (NCI-H226 lung): 12.9 µM
TGI (NCI-H226 lung): > 82.7 µM
GI50 (K-562 leukemia): 2650 nM
TGI (K-562 leukemia): 28.7 µM
GI50 (ACHN renal): 5.49 µM
TGI (ACHN renal): > 100 µM
GI50 (OVCAR-4 ovarian): 3.85 µM
TGI (OVCAR-4 ovarian): > 100 µM
GI50 (SR leukemia): 2660 nM
TGI (SR leukemia): 20.5 µM
GI50 (NCI-H522 lung): 6.39 µM
TGI (NCI-H522 lung): > 100 µM
GI50 (UO-31 renal): 4.29 µM
TGI (UO-31 renal): > 100 µM
GI50 (CCRF-CEM leukemia): 2920 nM
TGI (CCRF-CEM leukemia): > 32.2 µM
GI50 (RXF 393 renal): 2290 nM
TGI (RXF 393 renal): 9.2 µM
GI50 (KM12 colon): 5.72 µM
TGI (KM12 colon): > 62.4 µM
GI50 (MALME-3M melanoma): 14.7 µM
TGI (MALME-3M melanoma): 71.7 µM
GI50 (IGROV1 ovarian): 6.51 µM
TGI (IGROV1 ovarian): > 65.6 µM
GI50 (M14 melanoma): 6.8 µM
TGI (M14 melanoma): 43.4 µM
GI50 (TK-10 renal): 12.2 µM
TGI (TK-10 renal): > 75.3 µM
GI50 (SK-OV-3 ovarian): 4.3 µM
TGI (SK-OV-3 ovarian): 34.2 µM
GI50 (A498 renal): 1970 nM
TGI (A498 renal): 19.6 µM
GI50 (SK-MEL-5 melanoma): 3.22 µM
TGI (SK-MEL-5 melanoma): 15.8 µM

Source: PubChem BioAssay (NCI)
